# Assays:
# [1] = Acute toxicity, oral, rats; settings: rat, in vivo, suspension in 0.5% sodium carboxymethylcellulose, 7 days
# Experimental: A suspension of pionine in a 0.5% sodium carboxymethylcellulose solution was orally administered to Wistar rats (weighing about 130 g, one group: ten animal) with a stomach sonde. The number of dead rats were counted for 7 days, and LD50 (g/kg) was calculated by van der Werden's method. […] Thus, it is clear that pionine is a compound having an extremely wide safety range, taking into account the above experimental results that it is effective in a concentration of 10 μg/l for preventing and treating melanism of goldfish.
# [2] = system: tyrosinase derived from mushroom; test: Direct effect on tyrosinase activity (L-DOPA substrate); type: biochemical
# Experimental: The direct effect of pionine to tyrosinase activity was studied. 0.1 ml of a solution of pionine having various concentrations was mixed with 0.1 ml of 290 unit/ml solution of tyrosinase derived from mushroom (Sigma). […]
# yellow goldfish = test: Toxicity in yellow goldfish; type: in vivo; settings: 5 mg/l in water for three days, ten yellow goldfish
# [3] = system: surface melanism in yellow goldfish; test: Therapeutic effect on surface melanism in yellow goldfish; type: in vivo, goldfish (Ryukins); settings: for goldfish returned to their original yellow surface color: after 12 weeks, control 0%
# Experimental: Ryukins (weighing 3-5 g) were fed in a 0.9% NaCl aqueous solution for 12 days to induce surface melanism. The goldfish were grouped into five fish each. In two experiment groups, the fish were fed in a water bath for 12 weeks, during which pionine was add in an amount of 1 μg/l and 10 μg/l, respectively, three times per week. In the control group, the fish were fed in pure water. The recovery from surface melanism of the experiment groups was compared with that of control group.
# [4] = system: stains (chloasma) and pigmentations induced by inflammation; test: Clinical test, oral pionine; type: in vivo, human; parameters: key to Findings on skin: -1: deepened; 0: not changed; +1: faded; +2: completely disappeared
# Experimental: A hundred μg of pionine was orally administered to each of three patients having stains (chloasma) and each of three patients having pigmentations induced by inflammation, once a day when the patients were hungry. This test was continued for 6 months. The effect of pionine was evaluated and classified into four classes by the degree of color as follows:
# -1: deepened, 0: not changed, +1: faded,
# +2: completely disappeared.
# Evaluation by the patients themselves is also mentioned therein. Meanwhile, a patch test as to known cosmetics which were used by the patients was made for all patients before the clinical test, and if the result was positive (i.e. the known cosmetics are […]), the use of the cosmetics was prohibited.
# tyrosinase = test: Determination of tyrosinase activity in scales of treated goldfish; type: in vivo, goldfish (Ryukins); settings: scales on 12th day, control 0.06
# Experimental: (§1) Ryukins [a kind of goldfish (weighing 3-5 g, one group: 5 fish)] were fed in water containing 1 μg/l or 10 μg/l of pionine (No. 1 compound in the above Preparations) for 20 days. The goldfish were then transferred into a water bath filled with water containing 0.9% by weight of NaCl in order to induce melanism and fed for 12 days. As a control group, the fish were fed likewise except no active compound was used. The extent of surface melanism and the activity of tyrosinase in the group administered with pionine were compared with those of the control group.
# As samples to be tested, scales were picked from goldfish of each of groups on 12th day. The samples were each homogenized with 1M phosphate buffer (pH 6.8) and centrifuged. As to the supernatant, tyrosinase was determined by a colorimetry according to the procedure of N. H. Horowitz and Pomerantz (cf. Method in Enzymology, XVIIA, 615-626).
# [5] = system: surface melanism in yellow goldfish; test: Preventive effect on surface melanism in yellow goldfish; type: in vivo, goldfish (Ryukins); settings: then 0.9% NaCl 12 days, 12th day, 5 fish, control 100%
# Experimental: as §1
# Black popeyed goldfish = test: Action in normal black-goldfish; type: in vivo; settings: 10 μg/l three times per week, after 12 weeks
# Experimental: Black popeyed goldfish (each group: 5 fish) were fed in a water bath. In experimental group, pionine was added to the water bath in a concentration of 10 μg/l, three times per week. In the control group, no pionine was added.
smiles,measurement,setting,value
"CCCCCCCN1C(C)=CSC1=Cc1scc(C)[n+]1CCCCCCC [pionine, 4,4'-dimethyl-3,3'-di-n-heptyl-2,2'-monomethinethiazolocyanine iodide]",LD50 at 168 h,[1]; female Wistar rats,500 mg/kg
same,LD50 at 168 h,[1]; male Wistar rats,470 mg/kg
same,effect on tyrosinase activity,[2]; addition of 5×10^-2 to 10^-5 % of pionine,did not affect
same,tyrosinase inhibitory activity,"[2]; direct effect, summary statement",no tyrosinase inhibitory activity
same,ΔOD (at 475 nm),"[2]; pionine 5 × 10^-2 %, 2 min., control 0.250",0.248
same,ΔOD (at 475 nm),"[2]; pionine 5 × 10^-2 %, 5 min., control 0.540",0.540
same,ΔOD (at 475 nm),"[2]; pionine 5 × 10^-2 %, 10 min., control 0.782",0.786
same,ΔOD (at 475 nm),"[2]; pionine 5 × 10^-3 %, 2 min., control 0.250",0.252
same,ΔOD (at 475 nm),"[2]; pionine 5 × 10^-3 %, 5 min., control 0.540",0.544
same,ΔOD (at 475 nm),"[2]; pionine 5 × 10^-3 %, 10 min., control 0.782",0.780
same,ΔOD (at 475 nm),"[2]; pionine 5 × 10^-4 %, 2 min., control 0.250",0.252
same,ΔOD (at 475 nm),"[2]; pionine 5 × 10^-4 %, 5 min., control 0.540",0.540
same,ΔOD (at 475 nm),"[2]; pionine 5 × 10^-4 %, 10 min., control 0.782",0.784
same,ΔOD (at 475 nm),"[2]; pionine 5 × 10^-5 %, 2 min., control 0.250",0.250
same,ΔOD (at 475 nm),"[2]; pionine 5 × 10^-5 %, 5 min., control 0.540",0.538
same,ΔOD (at 475 nm),"[2]; pionine 5 × 10^-5 %, 10 min., control 0.782",0.780
same,abnormality,yellow goldfish,no abnormality was observed
same,death of fish,yellow goldfish,no fish was died
same,goldfish returned to their original yellow surface color,[3]; 1 μg/l three times per week,40%
same,goldfish returned to their original yellow surface color,[3]; 10 μg/l three times per week,80%
same,recovery from surface melanism,"[3]; 1 and 10 μg/l groups, within three weeks",not observed
same,patients with positive effect,"[4]; 5/6 patients, 100 μg orally once a day, 6 months",83%
same,Side effect,"[4]; Run No. 1, 100 μg orally once a day",No
same,Evaluation by patients,"[4]; Run No. 1, Chloasma",effective
same,Findings on skin,"[4]; Run No. 1, Chloasma, 100 μg orally once a day, at 4th month",+2
same,Evaluation by patients,"[4]; Run No. 2, Chloasma",not effective
same,Findings on skin,"[4]; Run No. 2, Chloasma, 100 μg orally once a day, at 6th month",0
same,Evaluation by patients,"[4]; Run No. 3, Chloasma",effective
same,Findings on skin,"[4]; Run No. 3, Chloasma, 100 μg orally once a day, at 5th month",+2
same,Findings on skin,"[4]; Run No. 4, Pigmentation after inflammation, 100 μg orally once a day, at 3rd month",+2
same,Findings on skin,"[4]; Run No. 5, Pigmentation after inflammation, 100 μg orally once a day, at 5th month",+2
same,Findings on skin,"[4]; Run No. 6, Pigmentation after inflammation, 100 μg orally once a day, at 3rd month",+1
same,side effect in all patients,"[4]; six patients, 100 μg orally once a day, 6 months",no side effect was observed
same,"tyrosinase activity, ΔOD at 475 nm/mg protein/30 min",tyrosinase; 1 μg/l group,0.05 /mg protein/30 min
same,"tyrosinase activity, ΔOD at 475 nm/mg protein/30 min",tyrosinase; 10 μg/l group,0.02 /mg protein/30 min
same,fish with surface melanism observed,[5]; 1 μg/l in water for 20 days,40%
same,fish with surface melanism observed,[5]; 10 μg/l in water for 20 days,none
same,blackness of normal black goldfish versus control,Black popeyed goldfish,no differences were observed

# Source: US4771060A, “Novel skin-whitening agent” (Teikoku Seiyaku Kabushiki Kaisha, priority 1986, dated 1988)
